Data taken from patent publication US6448405B1, “Steroid receptor modulator compounds and methods” (Ligand Pharmaceuticals Incorporated, priority 1994, dated 2002).
Where two headings read alike, the source gives them in different places.

Tests used:
[1] = target: T1, human androgen receptor (AR) (Homo sapiens, UniProt P10275); assay: Co-transfection assay, AR agonist and antagonist activity, CV-1 cells (pRShAR); assay type: cell-based; details: for AR Agonist CV-1 Cells Efficacy (%): relative to DHT; for AR Antagonist CV-1 Cells Efficacy (%): % maximal inhibition
T1 construct: expressed in transfected cells; host or cells: CV-1 cells, transient transfection
T1 sequence (P10275 1-920): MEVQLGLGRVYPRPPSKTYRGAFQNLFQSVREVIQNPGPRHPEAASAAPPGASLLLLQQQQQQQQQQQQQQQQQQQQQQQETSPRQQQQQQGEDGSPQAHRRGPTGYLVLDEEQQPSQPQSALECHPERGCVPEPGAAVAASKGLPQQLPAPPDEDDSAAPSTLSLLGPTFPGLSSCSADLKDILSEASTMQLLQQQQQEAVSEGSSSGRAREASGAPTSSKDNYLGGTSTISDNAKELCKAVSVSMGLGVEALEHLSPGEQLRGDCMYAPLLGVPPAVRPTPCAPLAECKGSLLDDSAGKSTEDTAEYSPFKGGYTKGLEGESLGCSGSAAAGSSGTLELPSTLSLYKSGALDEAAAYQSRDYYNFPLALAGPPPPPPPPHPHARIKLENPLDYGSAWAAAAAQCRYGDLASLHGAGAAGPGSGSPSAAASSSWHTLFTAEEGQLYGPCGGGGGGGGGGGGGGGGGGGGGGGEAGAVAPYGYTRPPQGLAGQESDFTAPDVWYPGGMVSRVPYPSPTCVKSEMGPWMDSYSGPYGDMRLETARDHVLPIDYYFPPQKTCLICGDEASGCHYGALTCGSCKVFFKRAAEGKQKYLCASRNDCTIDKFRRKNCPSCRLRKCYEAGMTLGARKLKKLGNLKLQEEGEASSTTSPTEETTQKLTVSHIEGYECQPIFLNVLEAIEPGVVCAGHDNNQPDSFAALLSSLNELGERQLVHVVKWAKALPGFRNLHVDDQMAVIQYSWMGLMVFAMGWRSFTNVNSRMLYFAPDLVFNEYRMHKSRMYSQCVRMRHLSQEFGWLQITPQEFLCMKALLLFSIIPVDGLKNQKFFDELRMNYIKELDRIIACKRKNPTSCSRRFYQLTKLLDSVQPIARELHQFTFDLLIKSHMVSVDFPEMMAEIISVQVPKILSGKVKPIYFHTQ

human AR = target: T2, human AR (Homo sapiens, UniProt P10275); assay: AR whole cell binding assay, transfected COS-1 cells, 3H-DHT
T2 construct: expressed in transfected cells; host or cells: COS-1 cells, transient transfection
T2 sequence (P10275 1-920): T1 sequence (P10275 1-920)

human PR-B = target: T3, human PR-B (Homo sapiens, UniProt P06401); assay: Co-transfection assay, PR agonist and antagonist activity, CV-1 cells; assay type: cell-based; details: for EC50: agonist mode, read-out: PR Agonist CV-1 Cells Potency; for IC50: read-out: PR Antagonist CV-1 Cells Potency;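 as to all read-outs here: luciferase reporter driven by a hormone response element, co-transfected with human PR-B into CV-1 monkey kidney cells, agonists raise and antagonists lower the reporter signal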
T3 construct: expressed in transfected cells; host or cells: CV-1 cells (African green monkey kidney fibroblasts), transient transfection
T3 sequence (P06401 1-933): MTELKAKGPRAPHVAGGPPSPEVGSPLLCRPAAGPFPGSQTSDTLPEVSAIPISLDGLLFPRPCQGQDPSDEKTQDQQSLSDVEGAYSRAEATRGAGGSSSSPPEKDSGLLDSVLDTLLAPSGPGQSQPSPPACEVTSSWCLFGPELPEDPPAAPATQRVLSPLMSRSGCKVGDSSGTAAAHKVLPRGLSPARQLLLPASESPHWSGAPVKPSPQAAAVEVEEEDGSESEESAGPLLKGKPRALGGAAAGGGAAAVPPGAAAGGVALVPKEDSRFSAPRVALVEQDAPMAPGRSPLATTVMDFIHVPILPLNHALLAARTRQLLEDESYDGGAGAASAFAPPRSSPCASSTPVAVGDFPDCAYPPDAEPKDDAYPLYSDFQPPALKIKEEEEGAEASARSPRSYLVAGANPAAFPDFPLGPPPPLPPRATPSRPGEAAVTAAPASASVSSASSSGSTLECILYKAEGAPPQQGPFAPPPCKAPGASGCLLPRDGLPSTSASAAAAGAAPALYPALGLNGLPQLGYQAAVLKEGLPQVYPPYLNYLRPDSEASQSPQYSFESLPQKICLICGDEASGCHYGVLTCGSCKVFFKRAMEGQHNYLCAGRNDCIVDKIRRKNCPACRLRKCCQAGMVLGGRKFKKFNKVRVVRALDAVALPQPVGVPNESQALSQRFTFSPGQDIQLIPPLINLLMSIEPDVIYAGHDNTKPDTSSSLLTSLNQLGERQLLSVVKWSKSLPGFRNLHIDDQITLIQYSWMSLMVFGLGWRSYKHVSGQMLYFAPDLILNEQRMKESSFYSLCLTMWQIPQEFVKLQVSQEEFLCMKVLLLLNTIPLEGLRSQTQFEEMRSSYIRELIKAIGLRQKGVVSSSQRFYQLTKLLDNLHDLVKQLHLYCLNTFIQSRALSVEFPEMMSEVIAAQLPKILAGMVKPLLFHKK

[2] = target: T4, human progesterone receptor A form (PR-A) (Homo sapiens, UniProt P06401); assay: PR binding assay, baculovirus extract, [3H] progesterone
T4 sequence (P06401 1-769 isoform P06401-2): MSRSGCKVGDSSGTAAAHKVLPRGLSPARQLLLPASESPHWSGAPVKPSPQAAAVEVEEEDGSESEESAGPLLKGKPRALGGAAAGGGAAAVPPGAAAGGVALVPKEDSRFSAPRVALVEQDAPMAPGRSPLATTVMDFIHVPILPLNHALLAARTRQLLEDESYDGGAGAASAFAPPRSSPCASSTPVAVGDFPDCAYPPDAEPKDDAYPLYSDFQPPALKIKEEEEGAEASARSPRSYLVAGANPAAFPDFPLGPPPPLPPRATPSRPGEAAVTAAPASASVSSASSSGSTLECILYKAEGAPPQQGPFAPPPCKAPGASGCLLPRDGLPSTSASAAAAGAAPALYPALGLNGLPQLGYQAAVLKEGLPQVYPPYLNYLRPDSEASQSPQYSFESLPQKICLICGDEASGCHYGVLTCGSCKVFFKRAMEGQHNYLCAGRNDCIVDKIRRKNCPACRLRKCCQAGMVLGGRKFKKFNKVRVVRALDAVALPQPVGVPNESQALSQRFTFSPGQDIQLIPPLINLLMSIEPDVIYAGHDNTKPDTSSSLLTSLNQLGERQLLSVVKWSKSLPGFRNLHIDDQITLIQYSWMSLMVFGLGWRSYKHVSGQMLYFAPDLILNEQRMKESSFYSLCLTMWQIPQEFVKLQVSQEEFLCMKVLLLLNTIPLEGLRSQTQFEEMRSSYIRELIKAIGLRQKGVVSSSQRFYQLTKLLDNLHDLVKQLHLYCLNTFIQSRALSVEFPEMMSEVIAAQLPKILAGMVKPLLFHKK

[3] = test system: uterine wet weight in ovariectomized Sprague-Dawely rats; assay: Uterine wet weight assay (PR agonists); assay type: in vivo, rat; details: MPA and Compound 210 at 0.3, 1.0 and 3.0 mg/rat; Compound 163 at 3 mg/rat
Text: The effectiveness of selected compounds of the present invention as PR agonists was investigated in the well recognized uterine wet weight assay, as described in G. J. Marcus, “Mitosis in the rat uterus during the estrous cycle, early pregnancy and early pseudopregnancy”, 10 Biol. Reprod., 447 (1974), S. […] J. Obstet. […] I. Dorfman, “Estrogens” (Ch. 2) and “Antiestrogens” (Ch. 3). in Methods in Hormone Research, ed. R. I. Dorfman, Academic Press, New York, New York, pp101-130 (1969), the disclosures of which are herein incorporated by reference. Four to five week old, ovariectomized, Sprague-Dawely rats (Harlan-Sprague-Dawely, Indianapolis, Ind.) were obtained 1 week after surgery and allowed to acclimate for an additional week after shipment. […] Louis, Mo.) a synthetic estrogen agonist, were fully dissolved in purified sesame oil (Croda, Parsippany, N.J.). […] Additional control groups of rats were administered estrone or vehicle (i.e. sesame oil) alone. Animals were sacrificed on the fourth day of the experiment.

PR, AR, ER, GR and MR = assay: cis-trans or co-transfection assay, steroid receptor panel (cross-reactivity); assay type: cell-based, human; details: as seen in the Tables
[4] = antagonist mode, DHT at its EC50
[5] = read-out: AR Antagonist CV-1 Cells Potency, Table 2, antagonist mode, IC50

Row | SMILES | EC50 [1] | IC50 [1] | AR Agonist CV-1 Cells Efficacy (%) ([1]; Table 2, agonist mode) | AR Antagonist CV-1 Cells Efficacy (%) ([1]; Table 2, antagonist mode) | AR Antagonist CV-1 Cells Efficacy (%) [1, 4] | IC50 [1, 5] | Ki (human AR) | AR Agonist CV-1 Cells Efficacy (%) ([1]; agonist mode) | EC50 ([1]; read-out: AR Agonist CV-1 Cells Potency, Table 2, agonist mode, EC50) | EC50 (human PR-B) | IC50 (human PR-B) | Ki ([2]; read-out: PR Binding Ki) | effect on uterine wet weight when co-administered with estrone [3] | steroid receptor selectivity profile (PR, AR, ER, GR and MR) | EC50 ([1]; read-out: AR Agonist CV-1 Cells Potency, agonist mode, EC50) | PR Agonist CV-1 Cells Efficacy (%) (human PR-B) | PR Antagonist CV-1 Cells Efficacy (%) (human PR-B) | Ki [2]
1 | CC1=CC(C)(C)Nc2cc3oc(=O)cc(C(F)(F)F)c3cc21 [Compound 238, 1,2-Dihydro-2,2,4-trimethyl-6-trifluoromethyl-8-pyranono[5,6-g]quinoline] | 10 nM | > 10000 nM | 96% | na (na = not active (i.e. efficacy of <20 and potency of >10,000)) | na (na = not active (i.e. efficacy of <20 and potency of >10,000)) | > 10000 nM | 44 nM | – | – | – | – | – | – | – | – | – | – | –
2 | CC1=CC(C)(C)N(C)c2cc3oc(=O)cc(C(F)(F)F)c3cc21 [Compound 265, 1,2-Dihydro-1,2,2,4-tetramethyl-6-trifluoromethyl-8-pyranono[5,6-g]quinoline] | > 10000 nM | 56 nM | na (na = not active (i.e. efficacy of <20 and potency of >10,000)) | 78% | – | – | 23 nM | na (na = not active (i.e. efficacy of <20 and potency of >10,000)) | > 10000 nM | – | – | – | – | – | – | – | – | –
3 | CC1=CC(C)(C)Nc2ccc3c(c21)C(c1ccc(Cl)cc1)Oc1ccccc1-3 (racemic) [Compound 163, (R/S)-5-(4-Chlorophenyl)-1,2-dihydro-2,2,4-trimethyl-5H-chromeno[3,4-f]quinoline] | – | – | – | – | – | – | – | – | – | 15 nM | 3620 nM | 1 nM | decreased by approximately half | highly selective PR agonists | – | – | – | –
4 | CC1CC(C)(C)Nc2cc3oc(=O)cc(-c4ccoc4)c3cc21 (racemic) [Compound 405, (R/S)-5-(3-Furyl)-1,2,3,4-tetrahydro-2,2,4-trimethyl-8-pyranono[5,6-g]quinoline] | > 10000 nM | 77 nM | na (na = not active (i.e. efficacy of <20 and potency of >10,000)) | 89% | – | – | 6 nM | na (na = not active (i.e. efficacy of <20 and potency of >10,000)) | – | – | – | – | – | – | > 10000 nM | – | – | –
5 | CC1=CC(C)(C)Nc2ccc3c(c21)/C(=C/c1ccccc1C)Oc1ccc(F)cc1-3 [Compound 374, (Z)-9-Fluoro-1,2-dihydro-2,2,4-trimethyl-5-(2-methylbenzylidene)-5H-chromeno[3,4-f]quinoline] | – | – | – | – | – | – | – | – | – | 4 nM | > 10000 nM | – | – | highly selective PR agonists | – | 231% | na (na = not active (i.e. efficacy or <20 and potency of >10,000)) | 0.5 nM
6 | CC1CC(C)(C)Nc2ccc(-c3cc(F)cc(C#N)c3)cc21 (racemic) [Compound 455, (R/S)-6-(3-Cyano-5-Fluorophenyl)-1,2,3,4-Tetrahydro-2,2,4-trimethylquinoline] | – | – | – | – | – | – | – | – | – | > 10000 nM | 35 nM | 10 nM | – | highly selective PR antagonists | – | na (na = not active (i.e. efficacy or <20 and potency of >10,000)) | 76% | –
7 | CCC1CCNc2cc3oc(=O)cc(C(F)(F)F)c3cc21 (racemic) [Compound 414, (R/S)-4-Ethyl-1,2,3,4-tetrahydro-6-trifluoromethyl-8-pyranono[5,6-g]quinoline] | 1 nM | > 10000 nM | 118% | na (na = not active (i.e. efficacy of <20 and potency of >10,000)) | na (na = not active (i.e. efficacy of <20 and potency of >10,000)) | > 10000 nM | 0.3 nM | – | – | – | – | – | – | – | – | – | – | –
